Source: paper PMC11219860, “A chemogenetic approach for dopamine imaging with tunable sensitivity” (Nature Communications, 2024)

How the values were obtained:
Format in all cases: in vivo, mouse
[1] = tested on: dLight1.3b; assay: Multi-fiber photometry of dLight1.3b across brain regions; conditions: mean ± SEM
Excerpt: We used a light emitting diode (LED, M470L5 Thorlabs) at the 470-nm central wavelength for excitation of dLight1.3b. To achieve stable continuous operation, LEDs were run at 80% of maximal output power corresponding to an excitation power of ~1 mW/mm^2 per fiber channel. LED light was collimated with the 16 mm condenser lens (ACL25416U-A, Thorlabs). A microscope objective (TL4x-SAP; Thorlabs) coupled excitation light into the respective array of 12-fibers (Sylex). A dichroic beamsplitter (F58-486 dual line, AHF) coupled the excitation light into the objective (TL4x-SAP, Thorlabs) and transmitted the fluorescence in the dLight1.3b emission spectral window. To separate fluorescence signals from residuals of the excitation light and to minimize auto-fluorescence generated in a broader spectral range we used an emission filter (525/50 nm, F37-516, AHF, for dLight1.3b). To image the end face of the fiber array onto the camera we used a 100-mm focal tube lens (TTL100-A, Thorlabs). […]
Fluorescence signals were expressed as percentage ΔF/F0 relative to the fluorescence baseline. The fluorescence baseline was defined as the minimal level of the signal after subtracting the auto-fluorescence baseline, that is the level of fluorescence estimated prior to the mouse connection. Because in our experiment we wanted to estimate the slow DETQ decay times, we fitted the second-order polynomial trend to the recorded fluorescence signals. […] In all measured traces we visually verified the quality of fit. […] To analyse the ΔF/F0 temporal dynamics at multiple temporal scales separately, we decomposed the fluorescence traces with the wavelet transform (cwt function, MATLAB). We separately analysed measurement traces (30 min before and 30 min after the injection). […] After we compared across independent channels and mice contribution of various temporal scales (in the range of 1−30 seconds) to the recorded ΔF/F0. […] To compare the temporal scales recorded before and after the DETQ injection, during the same session, we used a non-parametric Wilcoxon signed-rank test.

[2] = tested on: dLight1.3b; assay: Cue-reward Pavlovian conditioning with NAc dLight1.3b photometry
Protocol: After habituating mice to the experimental chamber (4 consecutive days for 5–10 min) mice were food restricted to 90% ad libitum body weight. […] During learning sessions, the delay between CS and US was increased every training day from 2 to 10 seconds until mice became expert. […] After i.p. injection, mice were placed into an operant chamber. 3–4 electric footshocks (0.4 mA for 1 second) were delivered 10 to 25 min post vehicle or DETQ with variable intervals (randomly chosen from a uniform distribution between 240 and 360 seconds or between 120 and 240 seconds) without predictive cues. Mouse freezing behavior was monitored with a video camera (C310 Logitech,10 frames per second) positioned above the recording chamber and controlled by the Synapse software. […] Freezing was defined as the complete cessation of all movement for at least 1 s during a 25-min testing duration.
(§1) For long-term recordings during optogenetic stimulation or chemogenetic inhibition linear fit was calculated across the entire recording or across the vehicle epoch; for event-related experiments fit was performed on fluorescent data obtained in the −60 to +60 s around opto events or −5 to −1 s around behavioral events. […] DA event-related responses were quantified by computing the value at the transient’s peak value and the AUC in the 0 to 10 s or 0 to 60 s period post-event onset. […] The maximal peak value of Veh-normalized ΔF/F0 after opto-onset was plotted over time and the plateau of maximal response was determined by averaging peak opto responses 5, 10, 15 and 20 min post-DETQ. We then looked at trials between 5 and 65 min post-DETQ to determine which trials belonged to a ‘temporal window for stable imaging’. […] AUC of the baseline was calculated within the +5 to +40 minutes time window post ip injection. For detection of spontaneous DA peaks the calculated ΔF/F0 was smoothed with a 50 datapoints (410 milliseconds) moving window, and the built-in Matlab function findpeaks was applied, with the threshold for minimal peak prominence set to 0.5% ΔF/F0.

[3] = tested on: dLight1.3b; assay: NAc dLight1.3b photometry with food restriction; conditions: DETQ 10 mg/kg
Protocol: To determine how metabolic state modulates tonic DA levels, DAT^IREScre mice expressing dLight1.3b in the NAc core were tested in either the fed state (ad libitum), the food-restricted state (mice food restricted to 90% of baseline body weight for 5–7 days), or after 4 weeks recovery from food-restriction (ad libitum). Daily food intake was measured per cage (2–3 mice per cage). […] Mice were injected i.p. with vehicle at 0 min and DETQ (10 mg/kg) 10–15 min later, then recording lasted 50 min.
as §1, with “post-DETQ.” for “post-DETQ. We then looked at trials between 5 and 65 min post-DETQ to determine which trials belonged to a ‘temporal window for stable imaging’.”, “For detection of spontaneous DA peaks the calculated ΔF/F0 was smoothed with a 50 datapoints (410 milliseconds) moving window, and the built-in Matlab function findpeaks was applied, with the threshold for minimal peak prominence set to 0.5% ΔF/F0.” left out

[4] = NAc, DETQ 10 mg/kg vs vehicle days

For `C[C@H]1c2cccc(C(C)(C)O)c2C[C@H](CO)N1C(=O)Cc1c(Cl)cccc1Cl` [DETQ, 2-(2,6-dichlorophenyl)-1-((1S,3R)-3-(hydroxymethyl)-5-(2-hydroxypropan-2-yl)-1-methyl-3,4-dihydroisoquinolin-2(1H)-yl)ethan-1-one], the “peak ΔF/F0 fluorescence” value ([1]; CPu) was 28.3 ± 6.27%, the “peak ΔF/F0 fluorescence” value ([1]; NAc) was 22.3 ± 6.11% and the “peak ΔF/F0 fluorescence” value ([1]; PFC) was 6.8 ± 2.39%. For the same molecule, the “latency to lick and overall licking activity” value ([2]; DETQ 10 mg/kg) was “not affected”, the “enhancement factor of CS-associated DA peak amplitude” value [2, 4] was “approximately 2 fold” and the “enhancement factor of US-associated DA peak amplitude” value [2, 4] was about 1.5 fold. For the same molecule, the “step-like increase in baseline fluorescence, food-restriction versus ad libitum state” value [3] was “significantly higher”.
